Patent US9885704B2, “Reagents and methods for cancer treatment and prevention” (priority 2006, dated 2018)

Experiments:
[1] = tested on: NF-κB promoter (THP-1 Clone A9); test: NF-κB promoter luciferase reporter, THP-1 Clone A9; type: cell-based, human; conditions: 50,000 reporter cells, 18 hours; FIG. 10
From the text: A stably transfected DNA construct encoding a NF-κB promoter driving firefly luciferase expression was integrated into: i) human pre-monocytic cell line THP-1; and ii) human premonocytic cell line MonoMac-6. Briefly, DNA encoding a concatemerized NF-κB response element upstream of the firefly luciferase gene [Ting et al., “RIP mediates tumor necrosis factor receptor 1 activation of NF-kappaB but not Fas/APO-1-initiated apoptosis” EMBO J. November 15; 15(22):6189-96(1996)] was subcloned into the pEAK8 vector backbone (Edge Biosystems, Gaithersburg Md.) by standard molecular biology techniques. Electroporations were performed using 10 μg of DNA and 700,000 THP-1 or MonoMac6 cells using a Biorad Gene Pulser II electroporator (Biorad, Hercules Calif.), 0.4 cm electrocuvettes, and 200 V, 950 μF. […] Luciferase expression was quantified using a Top Count NXT luminometer (Perkin Elmer, Wellesley Mass.). […]
The THP-1-derived clone A9 recognition of the TLR ligands Pam-3-Cys (signaling through TLR2) and bacterial flagellin (signaling through TLR5), but not bacterial lipopolysaccharide (signaling through TLR4) was determined by monitoring NF-κB activity in 96-well white plate automated assays during TG incubation. […]

[2] = tested on: NF-κB promoter (MonoMac-6 Clone C5); test: NF-κB promoter luciferase reporter, MonoMac-6 Clone C5; type: cell-based, human; conditions: FIG. 11
From the text: A stably transfected DNA construct encoding a NF-κB promoter driving firefly luciferase expression was integrated into: i) human pre-monocytic cell line THP-1; and ii) human premonocytic cell line MonoMac-6. Briefly, DNA encoding a concatemerized NF-κB response element upstream of the firefly luciferase gene [Ting et al., “RIP mediates tumor necrosis factor receptor 1 activation of NF-kappaB but not Fas/APO-1-initiated apoptosis” EMBO J. November 15; 15(22):6189-96(1996)] was subcloned into the pEAK8 vector backbone (Edge Biosystems, Gaithersburg Md.) by standard molecular biology techniques. Electroporations were performed using 10 μg of DNA and 700,000 THP-1 or MonoMac6 cells using a Biorad Gene Pulser II electroporator (Biorad, Hercules Calif.), 0.4 cm electrocuvettes, and 200 V, 950 μF. Following electroporation, cells were allowed to recover for two days prior to selection with 300 ng/ml puromycin aminonucleoside (Sigma-Aldrich) for the generation of stably transfected clones. Luciferase expression was quantified using a Top Count NXT luminometer (Perkin Elmer, Wellesley Mass.). Briefly, 50,000 reporter cells were incubated with indicated concentrations of the mediators of inflammation listed for 18 hours in 96-well white plates prior to harvest and analysis.
A second stable NF-κB reporter construct transfectant was created using MonoMac-6 cells. […]

HeLa cells = test: Pro-inflammatory cytokine release from THP-1 after exposure to compound-treated HeLa cells (ELISA); type: cell-based, human; conditions: for TNF-α secretion / immunostimulatory activity: HeLa cells treated with compound, FIG. 1
Experimental: The human cervical epithelium cell line HeLa and the mouse B16-F10 melanoma were purchased from American TCC and maintained in Dulbecco's modified eagle's media [D-MEM (Cellgro®, Herndon Va.)] supplemented with 10% fetal bovine serum (Sigma-Aldrich, St. Louis, Mo.). All cell stress/death-related treatments described below were performed using HeLa cells in initial screens. The human promonocytic leukemia THP-1 (ATCC, Manassas Va.) and pro-macrophage MonoMac6 cells were utilized as the reporter antigen presenting cells utilized in this study. Ziegler-Heitbrock et al., “Establishment of a human cell line (Mono Mac 6) with characteristics of mature monocytes” Int. J. Cancer 41:456-461 (1988). Both lines were maintained in RPMI-1640 media (Cellgro®) supplemented with 10% fetal bovine serum. Unless otherwise noted, all cells were maintained at 37° C. in a humidified incubator supplemented with 5% CO2.
The following list includes the small molecule compounds evaluated in this study: thapsigargin, thapsigargicin (MP Biomedicals, Irvine Calif.), 1,2-bis(o-aminophenoxy)ethane-N,N,N′,N′-tetraacetic Acid Tetra(acetoxymethyl) ester [BAPTA-AM, (EMD Biosciences, San Diego, Calif.)], ethyleneglycol-bis(β-aminoethyl)-N,N,N′,N′-tetraacetoxymethyl ester [EGTA-AM (EMD Biosciences)], 1,2-bis(2-aminophenoxy)ethane-N,N,N′,N′-tetraacetic acid […], tetrandrine, KCl, Amyloid peptide Aβ1-42, 1-Oleoyl-2-acetyl-sn-glycerol (OAG), calcimycin A23187, 2-aminoethyl diphenylborinate (2-APB), histamine, cyclopiazonic acid, 2,5-di-(t-butyl)-1,4-hydroquinone [BHQ (EMD Biosciences)], GdCl3, nicardipine hydrochloride, 1-(o-chloro-α,αdiphenylbenzyl)imidazole (clotrimazole), apamin, charybdotoxin, radicicol, brefeldin A, tunicamycin, tamoxifen, ionomycin, staurosporine, cis-diammineplatinum(II) dichloride (cisplatin), paclitaxel, methotrexate, cycloheximide, and rapamycin. Unless otherwise noted, all compounds were purchased from Sigma-Aldrich. Compounds were dissolved per manufacturer's recommendations prior to addition to HeLa cells in a range of concentrations based on the published literature and incubated between 1 minute to two days. The known mediators of inflammation pam3cys-ser-(lys)4, hydrochloride (Pam3Cys), bacterial flagellin, and lipopolysaccharide were purchased from EMD Biosciences.
Following cell stress/death, resulting cells/cell debris were collected, washed 3 times with excess phosphate-buffered saline, rapidly cycled through freeze/thaw (−80° C. to 25° C.) three times, and quantified by UV spectrophotometry (A280). To determine the presence of pro-inflammatory signals within stressed/dead cells, 40 μg of stressed/dead cell were added to 50,000 THP-1 and incubated for 18 hours. Supernatants were assessed for the presence of pro-inflammatory cytokines including tumor necrosis factor-α (TNF-α), interleukin 8 (IL-8), and IL-12 using commercially available ELISA systems.
A variety of different potential cell stress and cell death inducing agents were screened. […] (See FIG. 1).

[3] = tested on: Ca(2+)-ATPase from sarcoplasmic and endoplasmic reticula; conditions: activity not further specified; context Ca(2+)-ATPase inhibitory potency; cited from earlier work

Row | Compound | TNF-α secretion / immunostimulatory activity (HeLa cells) | further results
1 | pam3cys-ser-(lys)4, hydrochloride |  | recognition (NF-κB activity, luciferase) [1]: recognition; recognition (NF-κB activity, luciferase) [2]: recognized
2 | CNc1ccc2oc(C[C@H]3O[C@@]4(CC[C@H]3C)O[C@H]([C@H](C)C(=O)c3ccc[nH]3)[C@H](C)C[C@H]4C)nc2c1C(=O)O [calcimycin, calcimycin A23187] | did not induce immunostimulatory activity | 
3 | CC(=O)O[C@H]1C(=O)[C@@]2(C)[C@H]([C@H](OC(=O)c3ccccc3)[C@]3(O)C[C@H](OC(=O)[C@H](O)[C@@H](NC(=O)c4ccccc4)c4ccccc4)C(C)=C1C3(C)C)[C@]1(OC(C)=O)CO[C@@H]1C[C@@H]2O [Taxol®, paclitaxel] | did not induce immunostimulatory activity | 
4 | C/C=C(/C)C(=O)O[C@H]1C(C)=C2[C@H]([C@@H]1OC(=O)CCCCC)[C@@](C)(OC(C)=O)C[C@H](OC(=O)CCC)[C@@]1(O)[C@H]2OC(=O)[C@@]1(C)O [Thapsigargicin] |  | secretion of IL-8 from THP-1 (HeLa cells; treated HeLa cells, monocyte cell line THP-1, FIG. 2): activated a dose-dependent secretion of IL-8
5 | C[C@H]1CCC/C=C/[C@@H]2C[C@H](O)C[C@H]2[C@H](O)/C=C/C(=O)O1 [brefledin A, brefeldin A] | did not induce immunostimulatory activity | 
6 | C[C@@H]1C[C@@H]([C@H](O)CC2CC(=O)NC(=O)C2)C(=O)[C@@H](C)C1 [cycloheximide] | did not induce immunostimulatory activity | 
7 | bacterial lipopolysaccharide |  | recognition (NF-κB activity, luciferase) [2]: improved recognition
8 | C/C=C(/C)C(=O)O[C@@H]1C[C@H]2[C@@H]([C@H]1C)[C@@H]1OC(=O)[C@@](C)(O)[C@@]1(O)C(OC(=O)[C@@H](C)CC)C[C@]2(C)OC(C)=O (stereo partly shown) [compound 77] |  | activity of synthetic thapsigargin analogue [3]: potent activity
9 | tunicamycin | did not induce immunostimulatory activity | 
